Tests used:
[1] = target: serotoninergic 5-HT7 receptor (Homo sapiens, UniProt P34969); test: Binding assay 5-HT7 (h), [3H]LSD, CHO cells; design: expressed in transfected cells; host or cells: CHO cells; conditions: read-out: 5-HT7
Outline: (§1)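 Total binding and binding under an excess of unlabelled competitor were both measured, the difference giving specific binding. Counts came from scintillation detection, and compound concentration was 1×10^−6 M.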

[2] = target: T1, serotonine transporter (SERT) receptor (Homo sapiens, UniProt P31645); test: Binding assay SERT (h), [3H]imipramine, CHO cells; conditions: read-out: SERT [%]
T1 construct: expressed in transfected cells; host or cells: CHO cells
Outline: as §1

[3] = target: serotoninergic 5-HT2A receptor (Homo sapiens, UniProt P28223); test: Binding assay 5-HT2A (h), [3H]ketanserin, HEK-293 cells; design: expressed in transfected cells; host or cells: HEK-293 cells; conditions: read-out: 5-HT2A
Outline: as §1

[4] = target: dopaminergic D3 receptor (Homo sapiens, UniProt P35462); test: Binding assay D3 (h), [3H]methyl-spiperone, CHO cells; design: expressed in transfected cells; host or cells: CHO cells; conditions: read-out: D3 [%]
Outline: as §1

[5] = tested on: adrenergic α1 receptor; test: Binding assay α1 (non-selective), [3H]prazosin, rat cerebral cortex; conditions: percent inhibition of control specific binding; compounds tested at 1×10^−6 M
Outline: as §1

[6] = target: T2, muscarinic M3 receptor (Homo sapiens, UniProt P20309); test: Binding assay M3 (h), [3H]4-DAMP, CHO cells; conditions: read-out: M3 [%]
T2 construct: expressed in transfected cells; host or cells: CHO cells
Outline: as §1

[7] = target: T3, adrenergic α2C receptor (Homo sapiens, UniProt P18825); test: Binding assay α2C (h), [3H]RX 821002, CHO cells; design: expressed in transfected cells; host or cells: CHO cells; conditions: read-out: α2C [%]
T3 sequence (P18825 1-462): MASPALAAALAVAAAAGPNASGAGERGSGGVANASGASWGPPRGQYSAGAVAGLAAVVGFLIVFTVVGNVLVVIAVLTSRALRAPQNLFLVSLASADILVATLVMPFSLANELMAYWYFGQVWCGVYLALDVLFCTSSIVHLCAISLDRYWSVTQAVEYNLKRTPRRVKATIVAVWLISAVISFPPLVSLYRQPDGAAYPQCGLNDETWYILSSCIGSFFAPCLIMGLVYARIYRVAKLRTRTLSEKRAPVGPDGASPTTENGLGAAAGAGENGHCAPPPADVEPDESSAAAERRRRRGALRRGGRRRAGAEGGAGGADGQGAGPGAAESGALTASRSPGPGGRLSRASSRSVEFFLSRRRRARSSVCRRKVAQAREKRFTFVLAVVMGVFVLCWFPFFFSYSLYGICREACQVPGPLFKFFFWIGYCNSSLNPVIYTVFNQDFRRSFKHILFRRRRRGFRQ
Outline: as §1

[8] = target: T4, serotoninergic receptor 5-HT2C (Homo sapiens, UniProt P28335); test: Binding assay 5-HT2C (h), [3H]mesulergine, HEK-293 cells; conditions: read-out: 5-HT2C [%]
T4 construct: expressed in transfected cells; host or cells: HEK-293 cells
T4 sequence (P28335 33-458): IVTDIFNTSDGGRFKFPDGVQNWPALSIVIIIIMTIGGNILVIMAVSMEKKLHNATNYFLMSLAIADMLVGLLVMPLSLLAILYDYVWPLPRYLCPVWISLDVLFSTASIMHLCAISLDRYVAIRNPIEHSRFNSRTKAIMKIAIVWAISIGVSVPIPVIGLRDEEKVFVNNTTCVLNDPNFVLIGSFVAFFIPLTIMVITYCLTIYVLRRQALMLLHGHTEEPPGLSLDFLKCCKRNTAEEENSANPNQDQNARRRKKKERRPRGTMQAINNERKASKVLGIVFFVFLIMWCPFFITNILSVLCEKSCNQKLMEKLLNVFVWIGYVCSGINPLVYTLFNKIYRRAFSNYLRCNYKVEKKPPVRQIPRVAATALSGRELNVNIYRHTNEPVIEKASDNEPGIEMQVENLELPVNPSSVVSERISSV
Outline: as §1

[9] = target: serotoninergic 5-HT6 receptor (Homo sapiens, UniProt P50406); test: Binding assay 5-HT6 (h), [3H]LSD, CHO cells; design: expressed in transfected cells; host or cells: CHO cells; conditions: read-out: 5-HT6
Outline: as §1

[10] = tested on: sigma σ receptor; test: Binding assay σ (non-selective), [3H]DTG, rat cerebral cortex; conditions: percent inhibition of control specific binding; compounds tested at 1×10^−6 M
Outline: as §1

[11] = target: T5, serotoninergic 5-HT1A receptor (Homo sapiens, UniProt P08908); test: Binding assay 5-HT1A (h), [3H]8-OH-DPAT, HEK-293 cells; design: expressed in transfected cells; host or cells: HEK-293 cells; conditions: read-out: 5-HT1A
T5 sequence (P08908 1-422): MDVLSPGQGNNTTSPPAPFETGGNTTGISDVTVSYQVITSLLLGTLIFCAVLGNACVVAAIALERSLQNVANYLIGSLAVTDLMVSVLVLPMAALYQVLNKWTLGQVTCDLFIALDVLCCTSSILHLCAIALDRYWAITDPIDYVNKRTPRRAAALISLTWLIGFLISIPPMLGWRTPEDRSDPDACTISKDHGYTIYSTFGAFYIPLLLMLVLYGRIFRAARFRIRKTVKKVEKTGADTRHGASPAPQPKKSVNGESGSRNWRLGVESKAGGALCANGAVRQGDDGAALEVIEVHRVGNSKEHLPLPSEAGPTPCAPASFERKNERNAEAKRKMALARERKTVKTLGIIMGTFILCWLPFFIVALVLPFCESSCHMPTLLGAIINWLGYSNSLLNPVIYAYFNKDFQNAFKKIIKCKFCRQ
Outline: as §1

[12] = target: histaminergic H1 receptor (Homo sapiens, UniProt P35367); test: Binding assay H1 (h), [3H]pyrilamine, HEK-293 cells; design: expressed in transfected cells; host or cells: HEK-293 cells; conditions: read-out: H1 [%]
Outline: as §1

[13] = target: dopaminergic D2 receptor (Homo sapiens, UniProt P14416); test: Binding assay D2S (h), [3H]methyl-spiperone, HEK-293 cells; design: expressed in transfected cells; host or cells: HEK-293 cells; conditions: read-out: D2 [%]
Outline: as §1

Chain of dopaminergic D3 receptor (P35462 whole entry): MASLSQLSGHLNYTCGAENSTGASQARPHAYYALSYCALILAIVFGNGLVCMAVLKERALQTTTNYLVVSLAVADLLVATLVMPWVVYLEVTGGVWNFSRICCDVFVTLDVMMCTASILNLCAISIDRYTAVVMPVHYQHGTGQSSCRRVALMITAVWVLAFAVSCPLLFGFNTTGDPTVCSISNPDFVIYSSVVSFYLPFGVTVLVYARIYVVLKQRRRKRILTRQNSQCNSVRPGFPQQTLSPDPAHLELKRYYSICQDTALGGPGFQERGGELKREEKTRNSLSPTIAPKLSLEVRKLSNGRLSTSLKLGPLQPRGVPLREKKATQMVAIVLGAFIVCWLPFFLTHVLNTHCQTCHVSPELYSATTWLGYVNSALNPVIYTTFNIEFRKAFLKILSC
Chain of serotoninergic 5-HT2A receptor (P28223 whole entry): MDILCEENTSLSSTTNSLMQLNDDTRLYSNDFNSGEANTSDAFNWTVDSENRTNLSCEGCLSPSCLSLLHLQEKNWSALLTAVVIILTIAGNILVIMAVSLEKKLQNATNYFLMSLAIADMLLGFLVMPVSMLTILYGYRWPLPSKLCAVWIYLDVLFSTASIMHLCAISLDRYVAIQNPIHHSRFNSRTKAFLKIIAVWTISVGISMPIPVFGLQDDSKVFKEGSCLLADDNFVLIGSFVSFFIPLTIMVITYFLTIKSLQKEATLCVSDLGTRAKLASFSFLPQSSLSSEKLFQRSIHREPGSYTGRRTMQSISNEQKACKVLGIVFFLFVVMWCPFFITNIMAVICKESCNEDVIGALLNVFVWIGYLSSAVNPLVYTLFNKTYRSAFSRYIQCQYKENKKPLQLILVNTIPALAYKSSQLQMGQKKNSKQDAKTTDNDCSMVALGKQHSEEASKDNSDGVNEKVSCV
Chain of serotoninergic 5-HT6 receptor (P50406 whole entry): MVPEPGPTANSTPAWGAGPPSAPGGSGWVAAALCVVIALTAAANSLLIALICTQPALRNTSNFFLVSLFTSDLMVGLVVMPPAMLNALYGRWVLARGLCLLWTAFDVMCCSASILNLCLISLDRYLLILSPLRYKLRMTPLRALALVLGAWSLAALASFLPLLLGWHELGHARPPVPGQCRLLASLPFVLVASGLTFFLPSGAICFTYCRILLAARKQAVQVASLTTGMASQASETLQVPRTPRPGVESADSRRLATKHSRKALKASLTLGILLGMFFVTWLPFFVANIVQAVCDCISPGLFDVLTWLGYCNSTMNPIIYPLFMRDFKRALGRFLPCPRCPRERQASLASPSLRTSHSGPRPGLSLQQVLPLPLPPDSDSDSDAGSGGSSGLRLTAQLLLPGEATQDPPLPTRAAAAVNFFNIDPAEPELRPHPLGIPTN
T1 sequence (P31645 whole entry): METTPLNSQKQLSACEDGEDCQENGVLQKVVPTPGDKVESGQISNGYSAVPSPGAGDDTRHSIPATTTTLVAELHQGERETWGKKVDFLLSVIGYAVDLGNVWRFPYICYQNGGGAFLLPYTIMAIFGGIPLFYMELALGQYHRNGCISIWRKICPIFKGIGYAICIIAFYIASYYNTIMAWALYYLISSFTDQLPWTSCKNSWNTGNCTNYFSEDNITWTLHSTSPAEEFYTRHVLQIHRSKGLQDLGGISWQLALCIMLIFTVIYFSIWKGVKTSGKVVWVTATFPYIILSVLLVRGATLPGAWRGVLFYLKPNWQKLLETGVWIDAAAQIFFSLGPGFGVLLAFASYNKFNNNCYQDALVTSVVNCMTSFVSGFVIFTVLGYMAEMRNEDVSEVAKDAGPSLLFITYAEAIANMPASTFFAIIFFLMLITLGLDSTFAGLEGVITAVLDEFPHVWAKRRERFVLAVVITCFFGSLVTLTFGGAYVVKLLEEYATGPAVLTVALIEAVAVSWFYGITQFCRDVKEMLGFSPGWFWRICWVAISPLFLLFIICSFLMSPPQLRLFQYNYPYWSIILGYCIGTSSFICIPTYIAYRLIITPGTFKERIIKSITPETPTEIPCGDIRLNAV
Chain of dopaminergic D2 receptor (P14416 1-414 isoform P14416-2): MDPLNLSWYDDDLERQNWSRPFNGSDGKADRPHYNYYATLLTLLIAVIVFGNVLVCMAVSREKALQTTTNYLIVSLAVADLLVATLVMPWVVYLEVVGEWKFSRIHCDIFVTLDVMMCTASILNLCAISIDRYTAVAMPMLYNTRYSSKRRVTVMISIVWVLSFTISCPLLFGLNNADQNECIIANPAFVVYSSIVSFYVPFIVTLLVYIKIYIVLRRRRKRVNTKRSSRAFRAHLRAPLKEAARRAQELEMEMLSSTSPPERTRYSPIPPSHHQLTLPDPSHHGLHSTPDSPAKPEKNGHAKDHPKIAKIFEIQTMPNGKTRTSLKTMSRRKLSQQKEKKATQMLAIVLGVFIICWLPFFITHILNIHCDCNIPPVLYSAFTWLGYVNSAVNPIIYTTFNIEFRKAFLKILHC
Chain of histaminergic H1 receptor (P35367 whole entry): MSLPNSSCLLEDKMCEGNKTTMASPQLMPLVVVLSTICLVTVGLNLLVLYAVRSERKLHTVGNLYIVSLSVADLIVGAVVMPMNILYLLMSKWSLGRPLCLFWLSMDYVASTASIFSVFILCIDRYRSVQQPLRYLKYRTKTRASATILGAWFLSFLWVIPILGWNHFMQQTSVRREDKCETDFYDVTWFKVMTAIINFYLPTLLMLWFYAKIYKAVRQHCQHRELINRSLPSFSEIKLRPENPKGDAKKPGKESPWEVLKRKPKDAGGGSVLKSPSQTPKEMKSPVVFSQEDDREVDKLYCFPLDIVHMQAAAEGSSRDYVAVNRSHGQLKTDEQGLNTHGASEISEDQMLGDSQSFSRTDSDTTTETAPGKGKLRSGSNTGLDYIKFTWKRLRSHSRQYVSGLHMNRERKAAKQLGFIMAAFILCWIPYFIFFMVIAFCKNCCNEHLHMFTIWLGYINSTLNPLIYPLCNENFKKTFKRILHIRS
Chain of serotoninergic 5-HT7 receptor (P34969 whole entry): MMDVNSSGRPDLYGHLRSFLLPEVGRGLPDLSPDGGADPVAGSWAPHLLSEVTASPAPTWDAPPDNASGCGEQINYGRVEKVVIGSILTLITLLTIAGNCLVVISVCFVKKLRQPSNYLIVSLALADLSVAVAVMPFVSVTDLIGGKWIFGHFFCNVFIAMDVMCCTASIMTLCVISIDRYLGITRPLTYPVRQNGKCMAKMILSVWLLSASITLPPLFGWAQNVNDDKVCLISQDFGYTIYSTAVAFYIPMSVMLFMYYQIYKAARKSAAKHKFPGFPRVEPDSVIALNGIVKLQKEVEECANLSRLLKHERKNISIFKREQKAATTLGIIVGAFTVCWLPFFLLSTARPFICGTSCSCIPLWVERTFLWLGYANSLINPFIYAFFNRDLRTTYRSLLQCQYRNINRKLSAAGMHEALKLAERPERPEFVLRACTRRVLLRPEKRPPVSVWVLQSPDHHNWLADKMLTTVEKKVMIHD
T2 sequence (P20309 whole entry): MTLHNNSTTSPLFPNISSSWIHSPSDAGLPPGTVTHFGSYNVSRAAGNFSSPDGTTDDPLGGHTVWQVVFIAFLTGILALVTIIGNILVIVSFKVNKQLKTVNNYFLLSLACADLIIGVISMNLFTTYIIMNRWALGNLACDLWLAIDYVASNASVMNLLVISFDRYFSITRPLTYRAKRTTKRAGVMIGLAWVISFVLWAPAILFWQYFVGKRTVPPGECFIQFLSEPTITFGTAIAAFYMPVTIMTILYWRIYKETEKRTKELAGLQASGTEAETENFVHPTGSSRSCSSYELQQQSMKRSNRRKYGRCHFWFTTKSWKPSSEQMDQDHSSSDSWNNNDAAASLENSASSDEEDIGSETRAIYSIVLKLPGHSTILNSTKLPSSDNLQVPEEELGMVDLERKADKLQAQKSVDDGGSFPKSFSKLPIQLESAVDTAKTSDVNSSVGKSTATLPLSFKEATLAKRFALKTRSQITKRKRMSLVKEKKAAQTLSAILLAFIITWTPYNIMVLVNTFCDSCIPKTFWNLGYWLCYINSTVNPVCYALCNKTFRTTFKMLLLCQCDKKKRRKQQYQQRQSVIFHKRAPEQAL

Compound	inhibition at 1 µM [1] [%]	inhibition at 1 µM [2] [%]	inhibition at 1 µM [3] [%]	inhibition at 1 µM [4] [%]	α1 [%] [5] [%]	inhibition at 1 µM [6] [%]	inhibition at 1 µM [7] [%]	inhibition at 1 µM [8] [%]	inhibition at 1 µM [9] [%]	σ [%] [10] [%]	inhibition at 1 µM [11] [%]	inhibition at 1 µM [12] [%]	inhibition at 1 µM [13] [%]
O=S(=O)(NCCCCN1CCC(c2noc3cc(F)ccc23)CC1)c1cc2ccccc2o1 [Compound 316, N-[4-[4-(6-Fluoro-1,2-benzoxazol-3-yl)piperidin-1-yl]butyl]benzofuran-2-sulphonamide]	97	47	102	95	90	28	94	66	93	81	84	85	98
O=S(=O)(NCCCCN1CCC(c2noc3cc(F)ccc23)CC1)c1ccc2c(c1)OCO2 [Compound 320, N-[4-[4-(6-Fluoro-1,2-benzoxazol-3-yl)piperidin-1-yl]butyl]-1,3-benzodioxole-5-sulphonamide]	99	13	101	99	98	24	101	46	82	80	69	84	100
O=S(=O)(NCCCCN1CCC(c2noc3cc(F)ccc23)CC1)c1ccc2c(c1)OCCO2 [Compound 321, N-[4-[4-(6-Fluoro-1,2-benzoxazol-3-yl)piperidin-1-yl]butyl]-2,3-dihydro-1,4-benzodioxine-6-sulphonamide]	100	61	100	98	98	14	100	65	89	74	78	95	98
O=S(=O)(NCCCCN1CCC(c2noc3cc(F)ccc23)CC1)c1cccs1 [Compound 325, N-[4-[4-(6-Fluoro-1,2-benzoxazol-3-yl)piperidin-1-yl]butyl]thiophene-2-sulphonamide]	98	20	102	95	95	26	93	49	72	85	62	83	96
O=S(=O)(NCCCN1CCC(c2noc3cc(F)ccc23)CC1)c1cnc2ccccn12 [Compound 356, N-[3-[4-(6-Fluoro-1,2-benzoxazol-3-yl)piperidin-1-yl]propyl]imidazo[1,2-a]pyridine-3-sulphonamide]	99	11	99	96	101	2	96	83	78	70	95	80	98
O=S(=O)(NCCCN1CCC(c2noc3cc(F)ccc23)CC1)c1cc2cccnc2[nH]1 [Compound 357, N-[3-[4-(6-Fluoro-1,2-benzoxazol-3-yl)piperidin-1-yl]propyl]-1H-pyrrolo[2,3-b]pyridine-2-sulphonamide]	99	41	101	94	99	25	94	83	94	64	63	84	99
O=c1[nH]c2cccc(N3CCN(CCCCNS(=O)(=O)c4cccc5ccccc45)CC3)c2[nH]1 [Compound 418, N-[4-[4-(2-oxo-1,3-dihydrobenzimidazol-4-yl)piperazin-1-yl]butyl]naphthalene-1-sulphonamide]	89	5	36	99	98	4	94	19	5	6	98	55	97
O=c1[nH]c2cccc(N3CCN(CCCCNS(=O)(=O)c4ccc5ccccc5c4)CC3)c2[nH]1 [Compound 419, N-[4-[4-(2-oxo-1,3-dihydrobenzimidazol-4-yl)piperazin-1-yl]butyl]naphthalene-2-sulphonamide]	86	-21	52	97	86	-8	93	7	12	−14	98	12	93
O=S(=O)(NCCN1CC=C(c2c[nH]c3ccc(F)cc23)CC1)c1cccc(F)c1 [Compound 439, 3-Fluoro-N-[2-[4-(5-fluoro-1H-indol-3-yl)-3,6-dihydro-2H-pyridin-1-yl]ethyl]benzenesulphonamide]	78	93	83	95	27	16	68	41	92	80	99	18	97

— patent US8822517B2, “Arylosulfonamides for the treatment of CNS diseases” (Adamed SP. Z O.O., priority 2010, dated 2014)
